These results are taken from patent US20240209028A1, “CNP COMPOUNDS” (priority 2022, published 2024).

The structures appear in SMILES notation. ≈ marks a conversion by molar mass, not a printed value. Like-named read-outs stand apart in the source and are kept apart here. Starred links: 1 amine or outer side, 2 acyl side, 3 side chain; linkers in the order of their positions; H or OH if unused. Positions of bridges follow the written chain, without caps; N, C: chain ends. Residues, ends and D or L forms follow the SMILES beside them. *: point of attachment. C18 diacid = O=C(O)CCCCCCCCCCCCCCCCC(=O)*; γGlu = O=C(O)[C@H](CCC(=O)[*:2])N[*:1]; AEEA = NCCOCCOCC(=O)O

The target in data set [1] is T1, human natriuretic peptide receptor 2 (hNPR2) (Homo sapiens, UniProt P20594).
T1 construct: expressed in transfected cells; host or cells: HEK293 (ATCC CRL-1573), clone 35, co-transfected with pGloSensor-42F
T1 sequence (P20594 23-1047): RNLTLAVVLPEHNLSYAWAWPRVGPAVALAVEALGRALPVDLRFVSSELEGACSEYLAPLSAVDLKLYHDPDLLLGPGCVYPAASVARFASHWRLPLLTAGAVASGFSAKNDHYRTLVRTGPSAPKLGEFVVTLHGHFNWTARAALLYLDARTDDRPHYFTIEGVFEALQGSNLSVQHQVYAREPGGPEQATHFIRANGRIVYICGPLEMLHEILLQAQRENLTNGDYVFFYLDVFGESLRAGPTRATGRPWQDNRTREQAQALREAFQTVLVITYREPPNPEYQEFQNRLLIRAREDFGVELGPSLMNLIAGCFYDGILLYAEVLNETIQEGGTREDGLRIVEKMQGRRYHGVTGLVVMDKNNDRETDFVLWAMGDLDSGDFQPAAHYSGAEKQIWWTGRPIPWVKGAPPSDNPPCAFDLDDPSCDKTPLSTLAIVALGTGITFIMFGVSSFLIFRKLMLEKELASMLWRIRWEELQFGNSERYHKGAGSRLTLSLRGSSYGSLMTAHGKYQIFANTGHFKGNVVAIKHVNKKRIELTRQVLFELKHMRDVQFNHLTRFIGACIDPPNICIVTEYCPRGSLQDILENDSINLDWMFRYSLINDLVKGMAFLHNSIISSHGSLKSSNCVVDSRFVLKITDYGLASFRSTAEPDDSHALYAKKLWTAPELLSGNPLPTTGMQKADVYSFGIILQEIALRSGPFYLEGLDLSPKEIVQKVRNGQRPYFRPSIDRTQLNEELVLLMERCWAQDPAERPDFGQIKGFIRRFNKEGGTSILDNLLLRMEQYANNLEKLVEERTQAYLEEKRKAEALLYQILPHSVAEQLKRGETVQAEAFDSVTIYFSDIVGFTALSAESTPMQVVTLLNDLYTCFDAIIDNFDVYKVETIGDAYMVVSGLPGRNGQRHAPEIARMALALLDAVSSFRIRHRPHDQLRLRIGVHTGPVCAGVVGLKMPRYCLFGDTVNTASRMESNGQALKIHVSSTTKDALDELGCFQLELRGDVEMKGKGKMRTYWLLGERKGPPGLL
Nature of the data set: In vitro hNPR2 activity assay (cGMP GloSensor reporter, HEK293). The format is cell-based. As to conditions: for EC50: 0% HSA, HEK293-hNPR2/GloSensor cells; for hNPR2 0% HSA. [EC50% rel CNP]: potency relative to CNP22 (0065). In outline: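 Potency is the EC50 from a four-parameter logistic fit, also expressed relative to the in-plate CNP22 control (×100), with at least two replicates. Compounds (ten concentrations, […], HSA-free diluent with 1% OVA, 0.01% Tween20) were incubated 30 min at 37 °C on HEK293 cells co-expressing hNPR2 and a GloSensor cGMP luciferase. Luminescence detected with Bright-Glo.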

Data set [2] can be described thus: Solubility of CNP compounds at pH 4.0 and pH 6.5. The format is physicochemical. In outline:
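Freeze-dried peptide was brought to a nominal ≥4000-5000 nmol/mL in 5 mM sodium acetate, 250 mM glycerol (pH 4.0) or in 8 mM sodium phosphate, 23 mg/mL glycerol (pH 6.5 via NaOH titration). Samples were equilibrated at room temperature overnight if undissolved, and supernatant concentration was measured by CAD.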

Setting [3] is: 8 mM sodium phosphate, 23 mg/mL glycerol, pH 6.5, room temperature, read-out: Solubility at pH 6.5.

In general, EC50 refers to the concentration needed to bring the measured effect to its halfway point. What is called solubility is how much of the substance goes into solution per volume. `CC[C@H](C)[C@@H]1NC(=O)[C@H](CCCNC(=N)N)NC(=O)[C@H](CCC(=O)O)NC(=O)[C@H](CC(C)C)NC(=O)[C@@H]2CCCN2C(=O)[C@H](CC(C)C)NC(=O)CNC(=O)[C@H](Cc2ccccc2)NC(=O)[C@@H](NC(=O)CNC(=O)[C@H](CCC(N)=O)NC(=O)[C@H](CO)NC(=O)[C@H](CC(C)C)NC(=O)CNC(=O)[C@H](CCCCN)NC(=O)[C@H](CCCCN)NC(=O)[C@H](CCC(N)=O)NC(=O)[C@H](C)NC(=O)CNC(=O)[C@H](CCCCN)NC(=O)[C@H](Cc2ccc(O)cc2)NC(=O)[C@H](CCCCN)NC(=O)[C@H](CCCNC(=N)N)NC(=O)[C@H](C)NC(=O)COCCOCCNC(=O)COCCOCCNC(=O)COCCOCCNC(=O)COCCOCCNC(=O)CC[C@H](NC(=O)CC[C@H](NC(=O)CC[C@H](NC(=O)CC[C@H](NC(=O)CC[C@H](NC(=O)CCCCCCCCCCCCCCCCC(=O)O)C(=O)O)C(=O)O)C(=O)O)C(=O)O)C(=O)O)CSSC[C@@H](C(=O)O)NC(=O)CNC(=O)[C@H](CC(C)C)NC(=O)CNC(=O)[C@H](CO)NC(=O)[C@H](CC(C)C)NC(=O)[C@H](CO)NC(=O)CNC1=O` [compound 1477] ({C18 diacid-γGlu-γGlu-γGlu-γGlu-γGlu-AEEA-AEEA-AEEA-AEEA}-ARKYKGAQKKGLSQGCFGLPLERIGSLSGLGC-OH; disulfide 16-32): in data set [1], the EC50 came out at 0.13 nM and the “hNPR2 0% HSA. [EC50% rel CNP]” value was 10.3%. In data set [2] (pH 6.5), the concentration in solution (solubility) was 5.35 mM (≈ 25.9 mg/mL).
Take `CC[C@H](C)[C@@H]1NC(=O)[C@H](CCCNC(=N)N)NC(=O)[C@H](CC(=O)O)NC(=O)[C@H](CC(C)C)NC(=O)[C@@H]2CCCN2C(=O)[C@H](CC(C)C)NC(=O)CNC(=O)[C@H](Cc2ccccc2)NC(=O)[C@@H](NC(=O)CNC(=O)[C@H](CCC(N)=O)NC(=O)[C@H](CO)NC(=O)[C@H](CC(C)C)NC(=O)CNC(=O)[C@H](CCCCN)NC(=O)[C@H](CCCCN)NC(=O)[C@H](CCC(N)=O)NC(=O)[C@H](C)NC(=O)CNC(=O)[C@H](CCCCN)NC(=O)[C@H](Cc2ccc(O)cc2)NC(=O)COCCOCCNC(=O)COCCOCCNC(=O)COCCOCCNC(=O)COCCOCCNC(=O)CC[C@H](NC(=O)CC[C@H](NC(=O)CCCCCCCCCCCCCCCCC(=O)O)C(=O)O)C(=O)O)CSSC[C@@H](C(=O)O)NC(=O)CNC(=O)[C@H](CC(C)C)NC(=O)CNC(=O)[C@H](CO)NC(=O)[C@H](CC(C)C)NC(=O)[C@H](CO)NC(=O)CNC1=O` [compound 1478] ({C18 diacid-γGlu-γGlu-AEEA-AEEA-AEEA-AEEA}-YKGAQKKGLSQGCFGLPLDRIGSLSGLGC-OH; disulfide 13-29; C-terminus assumed): the “hNPR2 0% HSA. [EC50% rel CNP]” value in data set [1] came out at 26.6%. Further, the solubility in data set [2] (5 mM sodium acetate, 250 mM glycerol, pH 4.0, room temperature, read-out: Solubility at pH 4.0) worked out at 6.51 mM (≈ 26.6 mg/mL); in data set [2] (setting [3]), 2.18 mM (≈ 8.9 mg/mL).
For the compound `CC[C@H](C)[C@@H]1NC(=O)[C@H](CCCNC(=N)N)NC(=O)[C@H](CC(=O)O)NC(=O)[C@H](CC(C)C)NC(=O)[C@@H]2CCCN2C(=O)[C@H](CC(C)C)NC(=O)CNC(=O)[C@H](Cc2ccccc2)NC(=O)[C@@H](NC(=O)CNC(=O)[C@H](CCC(N)=O)NC(=O)[C@H](CO)NC(=O)[C@H](CC(C)C)NC(=O)CNC(=O)[C@H](CCCCN)NC(=O)[C@H](CCCCN)NC(=O)[C@H](CCC(N)=O)NC(=O)[C@H](C)NC(=O)CNC(=O)[C@@H]2CCCN2C(=O)[C@H](C)NC(=O)[C@H](CCC(N)=O)NC(=O)CNC(=O)COCCOCCNC(=O)COCCOCCNC(=O)CC[C@H](NC(=O)CCCCCCCCCCCCCCCCC(=O)O)C(=O)O)CSSC[C@@H](C(=O)O)NC(=O)CNC(=O)[C@H](CC(C)C)NC(=O)CNC(=O)[C@H](CO)NC(=O)[C@H](CC(C)C)NC(=O)[C@H](CO)NC(=O)CNC1=O` [compound 1484] ({C18 diacid-γGlu-AEEA-AEEA}-GQAPGAQKKGLSQGCFGLPLDRIGSLSGLGC-OH; disulfide 15-31; C-terminus assumed), the “hNPR2 0% HSA. [EC50% rel CNP]” value in data set [1] was 27.9%. The solubility in data set [2] (setting [3]) was determined as 2.33 mM (≈ 8.7 mg/mL).
For the compound `CC[C@H](C)[C@@H]1NC(=O)[C@H](CCCNC(=N)N)NC(=O)[C@H](CCC(=O)O)NC(=O)[C@H](CC(C)C)NC(=O)[C@@H]2CCCN2C(=O)[C@H](CC(C)C)NC(=O)CNC(=O)[C@H](Cc2ccccc2)NC(=O)[C@@H](NC(=O)CNC(=O)[C@H](CCC(N)=O)NC(=O)[C@H](CO)NC(=O)CNC(=O)CNC(=O)[C@H](CCCCN)NC(=O)[C@H](CCCCN)NC(=O)[C@H](CCC(N)=O)NC(=O)[C@H](C)NC(=O)CNC(=O)[C@H](CCCCN)NC(=O)[C@H](Cc2ccc(O)cc2)NC(=O)COCCOCCNC(=O)COCCOCCNC(=O)COCCOCCNC(=O)COCCOCCNC(=O)CC[C@H](NC(=O)CC[C@H](NC(=O)CCCCCCCCCCCCCCCCC(=O)O)C(=O)O)C(=O)O)CSSC[C@@H](C(=O)O)NC(=O)CNC(=O)[C@H](CC(C)C)NC(=O)CNC(=O)[C@H](CO)NC(=O)[C@H](CC(C)C)NC(=O)[C@H](CO)NC(=O)CNC1=O` [compound 1489] ({C18 diacid-γGlu-γGlu-AEEA-AEEA-AEEA-AEEA}-YKGAQKKGGSQGCFGLPLERIGSLSGLGC-OH; disulfide 13-29), in data set [1], the midpoint of the response, the EC50, lay at 0.22 nM and the “hNPR2 0% HSA. [EC50% rel CNP]” value came to 3.7%. The compound also came in with a solubility in data set [2] (pH 4) of 5.93 mM (≈ 24 mg/mL).
For the compound `CC[C@H](C)[C@@H]1NC(=O)[C@H](CCCNC(=N)N)NC(=O)[C@H](CC(=O)O)NC(=O)[C@H](CC(C)C)NC(=O)[C@@H]2CCCN2C(=O)[C@H](CC(C)C)NC(=O)CNC(=O)[C@H](Cc2ccccc2)NC(=O)[C@@H](NC(=O)CNC(=O)[C@H](CCC(N)=O)NC(=O)[C@H](CO)NC(=O)[C@H](CO)NC(=O)CNC(=O)[C@H](CCCCN)NC(=O)[C@H](CCCCN)NC(=O)[C@H](CCC(N)=O)NC(=O)[C@H](C)NC(=O)CNC(=O)[C@@H]2CCCN2C(=O)[C@H](C)NC(=O)[C@H](CCC(N)=O)NC(=O)CNC(=O)COCCOCCNC(=O)COCCOCCNC(=O)CC[C@H](NC(=O)CCCCCCCCCCCCCCCCC(=O)O)C(=O)O)CSSC[C@@H](C(=O)O)NC(=O)CNC(=O)[C@H](CC(C)C)NC(=O)CNC(=O)[C@H](CO)NC(=O)[C@H](CC(C)C)NC(=O)[C@H](CO)NC(=O)CNC1=O` [compound 9384] ({C18 diacid-γGlu-AEEA-AEEA}-GQAPGAQKKGSSQGCFGLPLDRIGSLSGLGC-OH; disulfide 15-31; C-terminus assumed), the “hNPR2 0% HSA. [EC50% rel CNP]” value in data set [1] is recorded as 53.7%. The solubility in data set [2] (setting [3]) stood at 7.56 mM (≈ 28 mg/mL).
As to `CC[C@H](C)[C@@H]1NC(=O)[C@H](CCCNC(=N)N)NC(=O)[C@H](CC(=O)O)NC(=O)[C@H](CC(C)C)NC(=O)[C@@H]2CCCN2C(=O)[C@H](CC(C)C)NC(=O)CNC(=O)[C@H](Cc2ccccc2)NC(=O)[C@@H](NC(=O)CNC(=O)[C@H](CCC(N)=O)NC(=O)[C@H](CO)NC(=O)[C@H](CC(C)C)NC(=O)CNC(=O)[C@H](CCCCN)NC(=O)[C@H](CCCCN)NC(=O)[C@H](CCC(N)=O)NC(=O)[C@H](C)NC(=O)CNC(=O)[C@H](CCCCN)NC(=O)[C@H](Cc2ccc(O)cc2)NC(=O)[C@H](CCCCN)NC(=O)[C@H](CCCNC(=N)N)NC(=O)[C@H](C)NC(=O)COCCOCCNC(=O)COCCOCCNC(=O)COCCOCCNC(=O)COCCOCCNC(=O)CC[C@H](NC(=O)CC[C@H](NC(=O)CC[C@H](NC(=O)CC[C@H](NC(=O)CC[C@H](NC(=O)CCCCCCCCCCCCCCCCC(=O)O)C(=O)O)C(=O)O)C(=O)O)C(=O)O)C(=O)O)CSSC[C@@H](C(=O)O)NC(=O)CNC(=O)[C@H](CC(C)C)NC(=O)CNC(=O)[C@H](CO)NC(=O)[C@H](CC(C)C)NC(=O)[C@H](CO)NC(=O)CNC1=O` [compound 9407] ({C18 diacid-γGlu-γGlu-γGlu-γGlu-γGlu-AEEA-AEEA-AEEA-AEEA}-ARKYKGAQKKGLSQGCFGLPLDRIGSLSGLGC-OH; disulfide 16-32), the “hNPR2 0% HSA. [EC50% rel CNP]” value in data set [1] was 38.6%. Further, the solubility in data set [2] (setting [3]) amounted to 6.69 mM (≈ 32.3 mg/mL).
